Consider three compounds from patent US20240024294A1, “COMPOSITIONS AND METHODS FOR THE TREATMENT OR PREVENTION OF PRETERM LABOR” (XOMA (US) LLC, priority 2020, published 2024).

The target in one series is human PGF2α receptor (Homo sapiens, UniProt P43088). The settings on record: competitive radioligand binding, U.S. Pat. No. 8,415,480, read-out: inhibition constant (Ki); cited from earlier work.
Series [1] deals with pregnant women with threatened spontaneous preterm labor. Briefly: Phase II clinical trial Part B: efficacy to delay preterm birth. The series is classed as in vivo, human. As for the experimental part:
(§1) A total of n=58 patients were treated with compound (2) and atosiban, and n=55 patients were treated with placebo and atosiban. As in part A, patients underwent a 48-hour infusion with atosiban. On the first day of atosiban treatment, patients were administered either placebo or compound (2) in a loading dose of 1,000 mg. On subsequent days, patients were then administered either placebo or compound (2) twice daily in an amount of 500 mg per dose until delivery.
Gestational age was confirmed by a first trimester ultrasound scan or by fertilization date. […] Subjects were required to begin treatment with atosiban within 24 hours before starting study treatment.
All participants received intravenous atosiban as standard-of-care therapy according to the approved product label for 48 hours. Treatment with study medication was to be initiated ideally simultaneously or at a maximum within 24 hours after initiating atosiban treatment. The loading dose of compound (2) was 1000 mg, with a maintenance dose of 500 mg twice a day, each 12 hours apart, for 7 days. Women allocated to the control group received the same dosing regimen with placebo. Subjects were instructed to record IMP administration in a patient diary and had to bring both opened and unopened IMP packages to each visit, in order to allow the assessment of compliance with study treatment.
Efficacy to delay preterm birth was assessed using the following outcomes: • delivery within 48 hours from start of treatment medication; • delivery within 7 days from start of treatment medication; • delivery before 37 weeks gestational age; and • time to delivery measured from start of treatment medication.
As this study was a proof-of-concept study, a primary efficacy endpoint was not prospectively defined. Other outcomes included the following: • uterine contractions assessed by electrohysterography, tocodynamometry, or abdominal palpation at each hour during the first 6 hours after start of test treatment; and • maternal plasma concentrations and pharmacokinetics of compound (1) (the active metabolite of compound (2)) and fetal cord blood concentrations at the time of delivery.
Analyses of the incidence of delivery within 2 days (48 h), within 7 days (168 h) post-compound (2) administration start, and before 37 weeks of gestational age was performed using logistic regression with treatment group as the independent variable. Strata effects (gestational age and number of fetuses) were included within the model. The treatment effect was expressed as an adjusted odds ratio with 90% confidence intervals. Treatment by strata interaction terms were explored. Other covariates explored included the pre-dose uterine contraction rate as well as the possibility of a site-to-site effect. Time to delivery measured from start of IMP administration was analyzed using Cox's proportional-hazards model. In addition, a log-rank test was performed. The analysis was performed using SAS® statistical software Version 9.4. P-values <0.10 were considered to indicate statistical significance.

The test system is the same in series [2]. Briefly: Phase II clinical trial Part A: safety (Doppler ultrasound, Amniotic Fluid Index, adverse events). The series is classed as in vivo, human. As for the experimental part:
(§2) Subjects participating in Part A of the study were diagnosed with preterm labor and were already receiving an atosiban infusion for 48 hours. Compound (2) was administered orally to each subject in an amount of 500 mg twice daily for 7 days, with a loading dose of 1,000 mg on Day 1.
(§3) In Part A of the study, fetal cardiac safety was monitored using Doppler ultrasound, and compound (2) pharmacokinetics were assessed on days 1, 2, 3 and 7 of the study. Amniotic Fluid Index was monitored from days 1 to 14. Time to delivery was also assessed.

Series [3] shares this test system. Briefly: Phase II clinical trial Part A: time to delivery. Type of series: in vivo, human. As for the experimental part:
This example reports results of a Phase II clinical trial of compound (2) in pregnant women with threatened spontaneous preterm labor. In part A of the study, compound (2) was administered in open-label fashion to n=9 patients with gestational ages of from 28 to 34 weeks in order to assess pharmacokinetics and safety. In part B of the study, compound (2) was administered to a more expansive set of n=58 subjects in order to assess efficacy, as well as to further evaluate safety.
as §2, §3

Series [4] shares this test system. Nature of the series: Phase II clinical trial Part B: adverse events. The settings on record: patients undergoing atosiban infusion. Type of series: in vivo, human. Here is the method: as §1
All participants received intravenous atosiban as standard-of-care therapy according to the approved product label for 48 hours. […]
Safety was assessed by way of the following outcomes: • maternal incidence of adverse events (AEs), treatment-emergent adverse events (TEAEs), clinically significant changes in laboratory safety tests, and vital signs from Day 1 until 28 days after birth; • incidence of AEs indicating fetal distress, such as growth retardation and/or changes in fetal heart rate monitoring and/or amniotic fluid index (AFI) or amniotic fluid volume (in twins); and incidence of neonates experiencing adverse events, as well as clinically significant changes in vital signs, Apgar score, weight and head circumference at birth, and a measure of neonatal morbidity from birth until 28 days after birth.

The target of series [5] is T1, Pept1 transporter protein (Homo sapiens, UniProt P46059).
T1 sequence (P46059 1-708): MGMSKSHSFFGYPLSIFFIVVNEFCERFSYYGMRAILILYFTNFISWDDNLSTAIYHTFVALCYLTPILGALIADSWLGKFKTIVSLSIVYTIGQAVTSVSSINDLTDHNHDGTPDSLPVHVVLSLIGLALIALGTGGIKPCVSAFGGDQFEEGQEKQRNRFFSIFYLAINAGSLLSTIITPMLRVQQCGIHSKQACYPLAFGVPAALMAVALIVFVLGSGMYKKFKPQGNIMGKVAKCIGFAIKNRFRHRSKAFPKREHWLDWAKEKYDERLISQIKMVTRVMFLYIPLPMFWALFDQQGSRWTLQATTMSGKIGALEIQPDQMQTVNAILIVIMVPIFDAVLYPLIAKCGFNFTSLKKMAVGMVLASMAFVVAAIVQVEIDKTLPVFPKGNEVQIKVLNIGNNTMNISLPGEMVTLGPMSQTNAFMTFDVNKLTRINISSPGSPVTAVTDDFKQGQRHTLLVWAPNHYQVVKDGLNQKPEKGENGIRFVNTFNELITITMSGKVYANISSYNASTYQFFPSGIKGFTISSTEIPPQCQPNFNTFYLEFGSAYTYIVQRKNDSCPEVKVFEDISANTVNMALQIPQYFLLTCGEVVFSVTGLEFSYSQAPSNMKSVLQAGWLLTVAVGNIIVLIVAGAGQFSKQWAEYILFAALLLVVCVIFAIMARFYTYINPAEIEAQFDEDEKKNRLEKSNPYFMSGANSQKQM
Nature of the series: Pept1 transporter substrate assessment. Type of series: in vitro ADME. As to conditions: compound 2 and salts thereof. The source says:
Compound 2 is de-esterified by ambient esterases in the small intestine and subsequently penetrates the small intestinal epithelium passively. […] Pept1 is known to mediate the absorption of a variety of valinate esters, as described, for example, in Vig et al., Adv. Drug Deliv. Rev. 65:1370-1385 (2013). […] Despite the presence the valinate ester functionality, compound 2 and salts thereof are not dependent upon this transporter for absorption across the small intestinal epithelium. […] Rather, compound 2 and salts thereof are converted in vivo to a form that is readily absorbed in a manner independent of energy and local proton gradient. This beneficial property, coupled with the high aqueous solubility of compound I and salts thereof, fosters a pharmacokinetic profile in which compound 2 and salts thereof readily dissolve in an aqueous environment and are in turn converted into a form capable of transported-independent absorption.

Series [6] is described as follows: Phase II clinical trial Part A: plasma pharmacokinetics. Type of series: in vivo, human. Here is the method:
as §2, §3

The conditions of series [7]: relative to compound 1; cited from earlier work.
The nature of series [8]: crystal form stability and hygroscopicity. The series is classed as physicochemical. The source says: For example, this compound is readily crystallized using a several distinct experimental procedures. Compound 3 assumes a single, reproducible crystal form upon crystallization from a variety of media and under different ambient conditions. […] For instance, impurities associated with atmospheric water are not readily integrated into the crystalline form of compound 3.

The term Ki denotes a dissociation constant, usually derived from enzyme kinetics or from competition with a known ligand.

Chain of human PGF2α receptor (P43088 whole entry): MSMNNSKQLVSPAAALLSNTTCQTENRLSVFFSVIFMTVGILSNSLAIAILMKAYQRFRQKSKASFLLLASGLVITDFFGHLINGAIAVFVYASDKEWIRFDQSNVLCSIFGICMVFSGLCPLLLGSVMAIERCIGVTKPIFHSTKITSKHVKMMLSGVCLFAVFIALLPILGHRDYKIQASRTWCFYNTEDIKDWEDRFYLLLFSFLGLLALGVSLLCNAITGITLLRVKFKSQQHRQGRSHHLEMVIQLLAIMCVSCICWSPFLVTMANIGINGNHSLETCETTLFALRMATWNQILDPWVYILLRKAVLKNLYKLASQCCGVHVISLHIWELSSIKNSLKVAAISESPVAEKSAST

`O=C(N[C@@H](CCO)c1ccc(F)cc1)C1SCCN1S(=O)(=O)c1ccc(-c2ccccc2)cc1` (stereo in doubt) [Compound 1, 3-([1,1′-biphenyl]-4-ylsulfonyl)-N-[1-(4-fluorophenyl)-3-hydroxypropyl]-1,3-thiazolidine-2-carboxamide]: the inhibitory constant (Ki) on human PGF2α receptor was 6 nM.

For the compound `CC(C)[C@H](N)C(=O)OCC[C@H](NC(=O)[C@@H]1SCCN1S(=O)(=O)c1ccc(-c2ccccc2)cc1)c1ccc(F)cc1` [compound (2), (3S)-3-({[(2S)-3-(biphenyl-4-ylsulfonyl)-1,3-thiazolidin-2-yl]carbonyl}-amino)-3-(4-fluorophenyl)propyl L-valinate], the “OR (90% CI), delivery ≤48 h” value in series [1] (all women, atosiban + compound (2) vs atosiban + placebo, adjusted odds ratio) worked out at 0.52; in series [1] (singletons only, vs atosiban + placebo), 0.39; in series [1] (twins only, vs atosiban + placebo), 2.05. For the same compound, the “OR (90% CI), delivery ≤7 days” value is recorded as 1.00 in series [1] (all women, vs atosiban + placebo) and 0.53 in series [1] (singletons only, GA 24 to 30 wks at BL, vs atosiban + placebo). Moreover, in series [1] (in combination with atosiban, vs atosiban and placebo (FIG. 7)), the “reduction in uterine contractions relative to baseline” value is reported as “more sustained reduction”. Further, the “delivery rate within 7 days” value in series [1] (singleton pregnancy, 24 to 30 weeks GA) is on record as 14.3%. The “adverse events reported for the fetuses” value in series [2] is listed as “No adverse events”. The “Amniotic Fluid Index” value in [2] (days 1 to 14 (FIG. 3)) is “no clinically significant changes”. Also, the “Doppler ultrasound findings, effect on the ductus arteriosus” value in [2] (fetal cardiac safety) is recorded as “no constrictive effect on the ductus arteriosus”. Further, the tolerability result in series [2] (oral administration for 7 days, women receiving atosiban) is “well tolerated”. For the same compound, in series [2] (over the dosing period (FIG. 2)), the “ductus arteriosus Pulsatility Index” value is given as “did not decrease”. Besides, the “patients that did not deliver within 7 days of administration” value in series [3] (9 singleton patients, 1,000 mg loading then 500 mg twice daily oral 7 days, on 48 h atosiban infusion) came out at 8 patients. Moreover, the “Mean±SD time to delivery” value in [3] (9 singleton patients, oral compound (2) 7 days, on atosiban infusion) amounted to 41 ± 23 days. For the same compound, the “adverse events compared with placebo” value in series [4] is listed as “fewer adverse events”. Further, the “substrate for the Pept1 transporter protein” value in series [5] is given as “not substrates”. Also, the “plasma concentrations and pharmacokinetic parameters compared with non-pregnant women” value in series [6] (Part A) is recorded as “similar”; in series [6] (Part A, listed as Compound (2)), “comparable”. Moreover, in [6] (Part A, 1,000 mg loading dose on Day 1), the “day on which steady-state concentrations were achieved” value stood at 1 days. For the same compound, the “absorption (plasma concentration vs. time profiles)” value in series [6] (Part A, oral, day 1 to day 7, on atosiban) is on record as “well absorbed”. Besides, in [7], the “solubility in water and in FeSSIF and FaSSIF media” value is listed as “improvements”.

Take `CC(C)[C@H](N)C(=O)OCC[C@H](NC(=O)[C@@H]1SCCN1S(=O)(=O)c1ccc(-c2ccccc2)cc1)c1ccc(F)cc1.Cl` [Compound 3, (3S)-3-({[(2S)-3-(biphenyl-4-ylsulfonyl)-1,3-thiazolidin-2-yl]carbonyl}-amino)-3-(4-fluorophenyl)propyl L-valinate hydrochloride]: the hygroscopicity result in series [8] is “low hygroscopicity”. Further, the “stability of crystal form” value in [8] (ambient conditions and elevated relative humidity) is “extended stability”.
